Reference: BindingDB's records for doi:10.1021/jm049715t (Uppsala University, 2004)

Target: Type-2 angiotensin II receptor (Sus scrofa)
Test: Displacement of [125I]-Ang II from pig uterus membrane angiotensin II type 2 (AT2) receptor

SMILES | Ki [nM]
CCCCOC(=O)NS(=O)(=O)c1sc(CC(C)C)cc1-c1ccc(Cn2ccnc2C)cc1 [butyl (5-isobutylthien-2-yl)sulfonylcarbamate derivative] | 0.5
CCCCOC(=O)NS(=O)(=O)c1sc(CC(C)C)cc1-c1ccc(Cn2c(CC)nc3ccccc32)cc1 [butyl (5-isobutylthien-2-yl)sulfonylcarbamate derivative] | 3.2
CCCCOC(=O)NS(=O)(=O)c1sc(CC(C)C)cc1-c1ccc(CC#N)cc1 [butyl (5-isobutylthien-2-yl)sulfonylcarbamate derivative] | 70

Further lines, results first:

Ki [nM] | SMILES
7.1 | CCCCOC(=O)NS(=O)(=O)c1sc(CC(C)C)cc1-c1ccc(Cn2cnc3cccnc32)cc1 [butyl (5-isobutylthien-2-yl)sulfonylcarbamate derivative]
4 | CCCCOC(=O)NS(=O)(=O)c1sc(CC(C)C)cc1-c1ccc(Cn2cnc3ccccc32)cc1 [butyl (5-isobutylthien-2-yl)sulfonylcarbamate derivative]
